Measured values taken from PMC9863764, “Roles of Human Liver Cytochrome P450 Enzymes in Tenatoprazole Metabolism” (Pharmaceutics, 2022).
“And” between values parts separate entries of the source, which are not always exact repeats. Equal values may be shown once.

Columns and labels:
[1] = parameters: method as in PMID 27640009; settings: neutral pH; cited from earlier work
human CYP3A4 = target: T1, human CYP3A4 (Homo sapiens, UniProt P08684); assay: Sulfoxidation of tenatoprazole sulfide by recombinant CYP3A4 (chiral chromatography); format: in vitro ADME; settings: substrate tenatoprazole sulfide, recombinant CYP3A4, chiral chromatography; label = product formed
T1 construct: made in house; host or cells: Escherichia coli (membrane fractions)
T1 sequence (P08684 whole entry): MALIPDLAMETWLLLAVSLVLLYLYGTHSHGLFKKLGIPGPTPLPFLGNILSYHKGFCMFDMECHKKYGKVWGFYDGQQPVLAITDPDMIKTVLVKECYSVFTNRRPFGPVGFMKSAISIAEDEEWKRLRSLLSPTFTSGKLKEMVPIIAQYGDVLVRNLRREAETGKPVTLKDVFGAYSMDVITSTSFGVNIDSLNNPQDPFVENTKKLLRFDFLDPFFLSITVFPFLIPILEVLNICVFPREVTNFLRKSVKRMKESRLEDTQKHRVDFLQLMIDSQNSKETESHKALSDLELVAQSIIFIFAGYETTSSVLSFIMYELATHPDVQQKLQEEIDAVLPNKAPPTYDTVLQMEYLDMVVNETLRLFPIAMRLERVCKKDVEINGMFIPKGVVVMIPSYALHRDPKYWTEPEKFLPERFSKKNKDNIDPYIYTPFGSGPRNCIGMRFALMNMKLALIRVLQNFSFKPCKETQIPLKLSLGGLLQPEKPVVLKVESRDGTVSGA
Method: The sulfoxidation reaction of tenatoprazole sulfide by CYP3A4 was measured by chiral chromatography. […] The reaction was initiated by adding NGS at 37 °C. […] After the residues were solubilized in 180 μL mobile phase, 30 μL samples were injected onto a Chiralpak AD column (4.6 × 150 mm, 10 μm; Daicel Corporation, Osaka, Japan) with a hexane-ethanol mixture (30:70, v/v) as the mobile phase. The products formed were analyzed by HPLC at […]. […] The kinetic parameters (kcat and Km) were determined by using a Michaelis-Menten nonlinear regression analysis with GraphPad Prism (GraphPad Software, San Diego, CA, USA).

human CYP2C19 [2] = target: T2, human CYP2C19 (Homo sapiens, UniProt P33261); parameters: method as in earlier work; settings: in vitro; cited from earlier work
T2 construct: made in house; host or cells: Escherichia coli (membrane fractions)
T2 sequence (P33261 whole entry): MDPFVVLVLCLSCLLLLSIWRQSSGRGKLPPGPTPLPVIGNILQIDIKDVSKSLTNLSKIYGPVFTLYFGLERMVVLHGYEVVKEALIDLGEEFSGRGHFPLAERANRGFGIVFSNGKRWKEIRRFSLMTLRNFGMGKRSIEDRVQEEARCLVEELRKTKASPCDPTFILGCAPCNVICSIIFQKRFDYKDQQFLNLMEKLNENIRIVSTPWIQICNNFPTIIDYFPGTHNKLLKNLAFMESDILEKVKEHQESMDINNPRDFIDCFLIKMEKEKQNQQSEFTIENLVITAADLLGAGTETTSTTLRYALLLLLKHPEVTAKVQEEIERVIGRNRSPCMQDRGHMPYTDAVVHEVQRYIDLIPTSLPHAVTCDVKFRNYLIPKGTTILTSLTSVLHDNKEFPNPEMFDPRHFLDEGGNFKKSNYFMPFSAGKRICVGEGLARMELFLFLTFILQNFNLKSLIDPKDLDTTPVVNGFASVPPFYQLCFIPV

human CYP2C19 [3] = target: T2, human CYP2C19; assay: Steady-state kinetics of tenatoprazole oxidation by recombinant CYP2C19; format: in vitro ADME
Method: Pooled liver microsomes from human samples were obtained from ThermoFisher Scientific (Waltham, MA, USA). […] Membrane fractions expressing both P450 and CPR of E. coli were prepared as described previously and were used for the catalytic activity assays. […] The reaction was started by adding NGS and the incubation was continued for the indicated time at 37 °C. Incubation was then stopped by adding ice-chilled ethyl acetate (0.50 mL) and omeprazole (IS) was added to a final concentration of 20 μM. […] Phenomenex, Torrance, CA, USA). The products formed were analyzed by HPLC at […]. […] The kinetic parameters (kcat and Km) were determined by using a Michaelis-Menten nonlinear regression analysis with GraphPad Prism (GraphPad Software, San Diego, CA, USA).

CYP1A2 = target: T3, CYP1A2 (Homo sapiens, UniProt P05177); assay: Tenatoprazole oxidation by recombinant CYP1A2; format: in vitro ADME; settings: substrate tenatoprazole 0.10 mM, 0.20 μM CYP1A2; no apparent formation
T3 construct: made in house; host or cells: Escherichia coli (membrane fractions)
T3 sequence (P05177 1-516): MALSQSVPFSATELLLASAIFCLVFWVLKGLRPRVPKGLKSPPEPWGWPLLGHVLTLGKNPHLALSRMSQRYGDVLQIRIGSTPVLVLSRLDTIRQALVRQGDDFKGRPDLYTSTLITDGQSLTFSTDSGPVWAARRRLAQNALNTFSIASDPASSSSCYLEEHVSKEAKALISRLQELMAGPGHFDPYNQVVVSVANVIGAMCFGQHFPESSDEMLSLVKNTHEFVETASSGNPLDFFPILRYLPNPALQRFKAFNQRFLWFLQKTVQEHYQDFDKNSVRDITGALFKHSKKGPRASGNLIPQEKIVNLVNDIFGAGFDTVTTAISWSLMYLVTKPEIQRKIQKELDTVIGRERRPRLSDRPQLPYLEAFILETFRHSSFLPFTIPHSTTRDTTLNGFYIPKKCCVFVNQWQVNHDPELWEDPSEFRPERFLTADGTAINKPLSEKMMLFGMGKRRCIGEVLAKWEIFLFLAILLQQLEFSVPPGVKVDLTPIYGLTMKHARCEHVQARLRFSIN
Method: (§1) Pooled liver microsomes from human samples were obtained from ThermoFisher Scientific (Waltham, MA, USA). Recombinant human P450s were heterologously expressed in Escherichia coli with a pCW vector containing human P450 cDNA (CYP 3A4, 2C9, 2C19, 1A2, 1B1, 2E1, 2D6, and 2A6) and rat NADPH-P450 reductase (CPR). Membrane fractions expressing both P450 and CPR of E. coli were prepared as described previously and were used for the catalytic activity assays.
(§2) The reaction mixture included 0.20 μM P450, 0.40 μM CPR, and tenatoprazole (0.10 mM) in 0.25 mL of 0.10 M potassium phosphate buffer (pH 7.4). The reaction was started by adding NGS and the incubation was continued for the indicated time at 37 °C. Incubation was then stopped by adding ice-chilled ethyl acetate (0.50 mL) and omeprazole (IS) was added to a final concentration of 20 μM. The mixtures were vortexed for 2 min, centrifuged at 1000× g for 20 min, and then the organic layer was taken for drying under nitrogen gas stream. The residues were dissolved in 180 μL of HPLC mobile phase and 30 μL was injected onto a Gemini C18 column (4.6 × 150 mm, 5 μm; Phenomenex, Torrance, CA, USA). The products formed were analyzed by HPLC at A302. The HPLC profile of the authentic chemicals (i.e., tenatoprazole, tenatoprazole sulfide, and their metabolites) were used to identify the major metabolites of tenatoprazole and tenatoprazole sulfide produced by the recombinant P450s.
(§3) Figure S6. HPLC analyses of the products derived from the oxidation of tenatoprazole catalyzed by recombinant human P450s. The reaction mixture included 0.20 μM P450, 0.40 μM CPR, and 0.10 mM tenatoprazole in 0.25 mL of potassium phosphate buffer (0.10 M, pH 7.4). The reaction was started by adding an NGS at 37 °C for 60 min. (A) CYP1A2; (B) CYP1B1; (C) CYP2A6; (D) CYP2C9; (E) CYP2D6; (F) CYP2E1. The arrows with solid and broken lines indicate the retention times of 5’-OH tenatoprazole (6.6 min) and 5’-OH tenatoprazole sulfide (8.4 min), respectively.
(§4) (1 picture or pasted object on this page, not shown here)

CYP1B1 = target: T4, CYP1B1 (Homo sapiens, UniProt Q16678); assay: Tenatoprazole oxidation by recombinant CYP1B1; format: in vitro ADME; settings: substrate tenatoprazole 0.10 mM, 0.20 μM CYP1B1; no apparent formation
T4 construct: made in house; host or cells: Escherichia coli (membrane fractions)
T4 sequence (Q16678 1-543): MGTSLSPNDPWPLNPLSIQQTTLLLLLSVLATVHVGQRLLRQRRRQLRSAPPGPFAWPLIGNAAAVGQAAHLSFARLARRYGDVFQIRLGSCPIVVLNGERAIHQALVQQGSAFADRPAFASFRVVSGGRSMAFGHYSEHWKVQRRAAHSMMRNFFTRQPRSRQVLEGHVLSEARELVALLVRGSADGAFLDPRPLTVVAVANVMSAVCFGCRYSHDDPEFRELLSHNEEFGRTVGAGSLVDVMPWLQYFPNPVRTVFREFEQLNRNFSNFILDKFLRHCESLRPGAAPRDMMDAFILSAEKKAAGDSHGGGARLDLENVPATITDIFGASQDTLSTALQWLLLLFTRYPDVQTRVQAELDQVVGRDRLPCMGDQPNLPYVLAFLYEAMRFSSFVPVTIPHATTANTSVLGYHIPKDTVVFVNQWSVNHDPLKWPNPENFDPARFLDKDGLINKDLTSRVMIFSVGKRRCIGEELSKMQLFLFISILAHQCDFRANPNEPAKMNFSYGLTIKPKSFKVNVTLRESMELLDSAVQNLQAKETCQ
Method: as §1, §2, §3, §4

CYP2A6 = target: T5, CYP2A6 (Homo sapiens, UniProt P11509); assay: Tenatoprazole oxidation by recombinant CYP2A6; format: in vitro ADME; settings: substrate tenatoprazole 0.10 mM, 0.20 μM CYP2A6; no apparent formation
T5 construct: made in house; host or cells: Escherichia coli (membrane fractions)
T5 sequence (P11509 1-494): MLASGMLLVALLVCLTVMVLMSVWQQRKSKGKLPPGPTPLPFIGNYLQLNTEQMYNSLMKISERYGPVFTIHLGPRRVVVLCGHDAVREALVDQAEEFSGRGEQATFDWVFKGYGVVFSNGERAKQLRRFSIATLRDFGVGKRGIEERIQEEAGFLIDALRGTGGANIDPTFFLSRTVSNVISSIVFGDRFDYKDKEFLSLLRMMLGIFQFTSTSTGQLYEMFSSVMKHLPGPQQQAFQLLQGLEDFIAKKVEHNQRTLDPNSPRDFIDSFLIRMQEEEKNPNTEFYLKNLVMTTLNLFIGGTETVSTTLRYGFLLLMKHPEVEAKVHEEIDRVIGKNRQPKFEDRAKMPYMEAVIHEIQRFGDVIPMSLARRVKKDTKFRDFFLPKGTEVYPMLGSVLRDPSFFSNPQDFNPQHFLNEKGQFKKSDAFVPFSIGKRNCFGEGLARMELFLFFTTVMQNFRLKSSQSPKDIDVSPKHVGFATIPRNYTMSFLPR
Method: as §1, §2, §3, §4

CYP2E1 = target: T6, CYP2E1 (Homo sapiens, UniProt P05181); assay: Tenatoprazole oxidation by recombinant CYP2E1; format: in vitro ADME; settings: substrate tenatoprazole 0.10 mM, 0.20 μM CYP2E1; no apparent formation
T6 construct: made in house; host or cells: Escherichia coli (membrane fractions)
T6 sequence (P05181 whole entry): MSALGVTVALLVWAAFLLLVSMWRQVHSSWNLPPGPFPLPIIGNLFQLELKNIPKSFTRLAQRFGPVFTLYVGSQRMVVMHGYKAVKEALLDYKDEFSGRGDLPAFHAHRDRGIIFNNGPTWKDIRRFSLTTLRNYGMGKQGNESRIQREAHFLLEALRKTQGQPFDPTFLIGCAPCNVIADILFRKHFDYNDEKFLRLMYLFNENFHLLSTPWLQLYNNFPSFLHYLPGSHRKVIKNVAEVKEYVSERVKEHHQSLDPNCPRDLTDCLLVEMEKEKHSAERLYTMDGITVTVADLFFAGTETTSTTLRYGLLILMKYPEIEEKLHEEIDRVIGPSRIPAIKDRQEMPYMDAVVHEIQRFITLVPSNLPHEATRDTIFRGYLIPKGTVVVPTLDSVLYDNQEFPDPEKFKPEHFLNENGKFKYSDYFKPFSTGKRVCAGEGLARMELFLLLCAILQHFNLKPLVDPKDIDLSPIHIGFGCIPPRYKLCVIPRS
Method: as §1, §2, §3, §4

CYP2C9 = target: T7, CYP2C9 (Homo sapiens, UniProt P11712); assay: Tenatoprazole oxidation by recombinant CYP2C9; format: in vitro ADME; settings: substrate tenatoprazole 0.10 mM, 0.20 μM CYP2C9
T7 construct: made in house; host or cells: Escherichia coli (membrane fractions)
T7 sequence (P11712 whole entry): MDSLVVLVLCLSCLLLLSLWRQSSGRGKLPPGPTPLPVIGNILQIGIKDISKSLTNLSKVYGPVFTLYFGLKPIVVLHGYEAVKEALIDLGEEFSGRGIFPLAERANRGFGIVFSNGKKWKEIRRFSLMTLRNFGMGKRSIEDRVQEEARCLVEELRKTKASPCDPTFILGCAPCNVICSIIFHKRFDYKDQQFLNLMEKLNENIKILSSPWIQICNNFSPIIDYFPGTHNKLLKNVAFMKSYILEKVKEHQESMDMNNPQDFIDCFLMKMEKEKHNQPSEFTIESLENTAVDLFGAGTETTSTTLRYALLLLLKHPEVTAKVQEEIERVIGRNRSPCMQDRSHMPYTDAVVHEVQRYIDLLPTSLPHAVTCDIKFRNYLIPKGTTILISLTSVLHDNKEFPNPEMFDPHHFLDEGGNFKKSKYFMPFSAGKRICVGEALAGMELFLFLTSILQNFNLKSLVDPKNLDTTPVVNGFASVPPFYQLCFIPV
Method: as §1
as §2, with “The HPLC profile of the authentic chemicals (i.e., tenatoprazole, tenatoprazole sulfide, and their metabolites) were used to identify the major metabolites of tenatoprazole and tenatoprazole sulfide produced by the recombinant P450s.” left out

CYP2D6 = target: T8, CYP2D6 (Homo sapiens, UniProt P10635); assay: Tenatoprazole oxidation by recombinant CYP2D6; format: in vitro ADME; settings: substrate tenatoprazole 0.10 mM, 0.20 μM CYP2D6
T8 construct: made in house; host or cells: Escherichia coli (membrane fractions)
T8 sequence (P10635 whole entry): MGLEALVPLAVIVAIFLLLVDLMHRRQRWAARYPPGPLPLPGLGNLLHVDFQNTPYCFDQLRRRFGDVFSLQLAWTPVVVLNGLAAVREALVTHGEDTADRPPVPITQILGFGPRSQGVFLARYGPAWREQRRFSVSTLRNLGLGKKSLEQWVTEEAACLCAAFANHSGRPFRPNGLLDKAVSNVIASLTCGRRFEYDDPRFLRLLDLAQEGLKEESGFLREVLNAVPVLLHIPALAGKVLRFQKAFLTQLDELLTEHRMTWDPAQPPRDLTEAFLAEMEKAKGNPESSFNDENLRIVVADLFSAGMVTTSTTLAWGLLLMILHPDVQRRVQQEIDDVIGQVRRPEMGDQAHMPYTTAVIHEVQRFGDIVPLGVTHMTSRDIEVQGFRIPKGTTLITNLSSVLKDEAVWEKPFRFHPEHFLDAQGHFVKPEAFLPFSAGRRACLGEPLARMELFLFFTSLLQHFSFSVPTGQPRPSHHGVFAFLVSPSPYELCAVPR
Method: as §1
as §2, with “The HPLC profile of the authentic chemicals (i.e., tenatoprazole, tenatoprazole sulfide, and their metabolites) were used to identify the major metabolites of tenatoprazole and tenatoprazole sulfide produced by the recombinant P450s.” left out

[4] = system: human liver microsomes (HLMs); assay: Time course of oxidation of tenatoprazole and tenatoprazole sulfide by human liver microsomes (HPLC); format: in vitro ADME; settings: for tenatoprazole remained: substrate tenatoprazole 500 μM
Method: A racemate of tenatoprazole was used in this work because the chiral tenatoprazoles currently are not commercially available. The reactions using HLMs contained incubation at 37 °C in 0.25 mL mixtures containing P450 (0.5 mg protein/mL) in 100 mM potassium phosphate buffer (pH 7.4), an NADPH-generating system (NGS, final concentration of 10 mM glucose-6-phosphate, 0.50 mM NADP^+, 1.0 IU yeast glucose-6-phosphate dehydrogenase per mL), and 0.1 mM of tenatoprazole or tenatoprazole sulfide. Incubations generally were performed for 2 h in the presence or absence of the NGS. Tenatoprazole and its metabolites were extracted twice using cold ethyl acetate as an organic solvent. Then centrifugation (1000× g, 20 min) was done to separate the organic layer from the aqueous layer. Omeprazole was added to this solution as an internal standard (IS) at a final 20 μM concentration. The organic layer was concentrated under nitrogen gas stream. The dried residues were then dissolved in the mobile phase (180 μL) and 30 μL was injected onto the column.
High-performance liquid chromatography (HPLC) was performed on the basis of a previously developed method for tenatoprazole and its metabolites, as described elsewhere. The analytical column was a Gemini C18 column (4.6 × 150 mm, 5 μm; Phenomenex), and the HPLC mobile phase consisted of acetonitrile and 5 mM potassium phosphate buffer (pH 7.3) (25:75, v/v). The substrate and its metabolites were detected at A302. The HPLC profile of the authentic compounds (i.e., tenatoprazole and its metabolites) were measured to compare to identify the major metabolites of tenatoprazole and tenatoprazole sulfide produced by HLMs.
The time course of the oxidation of tenatoprazole and tenatoprazole sulfide by HLMs (0.5 mg protein/mL) was analyzed to the estimated yield of metabolites and percentage of each metabolite using 0.60 mM substrate in 0.25 mL of 0.10 M potassium phosphate buffer (pH 7.4). After NGS was added to initiate the reaction, the samples were incubated for the designated time (i.e., 2, 5, 10, and 30 min, and 1, 2, 4, 8, 12, and 24 h) at 37 °C. Product formation was quantified using HPLC analysis, as mentioned above.
Calibration standard curves of tenatoprazole were made using a blank control sample (a reaction mixture without substrate and IS) and 12 samples containing tenatoprazole and omeprazole (IS) covering the concentration ranges of 1–500 μM, as described previously. The peak area ratio of tenatoprazole to IS was linear with respect to the analyte concentration over the range of 1–500 μM. The metabolites were quantified by comparing the peak areas of each metabolite to the mean peak areas of the IS (20 μM omeprazole).

[5] = parameters: method as in PMID 23205582; settings: compared with other PPIs such as lansoprazole and omeprazole; cited from earlier work

COc1ccc2[nH]c([S+]([O-])Cc3ncc(C)c(OC)c3C)nc2c1 (stereo not drawn) [omeprazole, Omeprazole]
spontaneous or nonenzymatic degradation to omeprazole sulfide [1]: not spontaneously or nonenzymatically degraded

COc1ccc2[nH]c([S@@+]([O-])Cc3ncc(C)c(OC)c3C)nc2n1 [S-tenatoprazole]
kcat of product formation (human CYP3A4): 0.045 s⁻¹ and 0.045 ± 0.0033 s⁻¹ | rate of metabolism of S-isomer relative to R-isomer (human CYP2C19 [2]): around seven times more slowly

COc1ccc2[nH]c(SCc3ncc(CO)c(OC)c3C)nc2n1 [5′-OH tenatoprazole sulfide]
kcat of product formation (human CYP2C19 [3]; substrate tenatoprazole (1–500 μM), recombinant CYP2C19 0.20 μM, 37 °C, 5 min, label = product formed): 0.0333 s⁻¹ and 0.0333 ± 0.0017 s⁻¹ | formation rate of metabolite (CYP1A2): < 0.05 nmol product/min/nmol P450 | formation rate of metabolite (CYP1B1): < 0.05 nmol product/min/nmol P450 | formation rate of metabolite (CYP2A6): < 0.05 nmol product/min/nmol P450 | formation rate of metabolite (CYP2E1): < 0.05 nmol product/min/nmol P450 | formation rate of metabolite (CYP2C9): 0.1 min⁻¹ | formation rate of metabolite (CYP2D6): 0.3 min⁻¹

COc1ccc2[nH]c([S+]([O-])Cc3ncc(C)c(OC)c3C)nc2n1 (stereo not drawn) [tenatoprazole, Tenatoprazole]
tenatoprazole remained ([4]; HLM reaction mixture without NADPH, after 12 h): 4.4% | tenatoprazole remained ([4]; HLMs, presence of NADPH, 12 h of incubation, 37 °C): 1.0% | product formed from tenatoprazole sulfide (% of substrate) ([4]; substrate tenatoprazole sulfide 500 μM, HLMs, presence of NADPH, after 12 h): 0.49% | sulfoxidation of tenatoprazole by CYP2C19 (human CYP2C19 [3]; recombinant CYP2C19, substrate tenatoprazole): did not catalyze | plasma half-life, times longer than those of other PPI drugs [5]: ~7 times
